From patent publication US20030138380A1, “Gas emulsions stabilized with fluorinated ethers having low Ostwald coefficients” (priority 1995, published 2003)

How the values were obtained:
[1] = system: pig heart; assay: Second harmonic ultrasound imaging of the heart, pig model; type: in vivo, pigs; settings: Powder D with osmotic agent-N2 mixture, 0.5 mL infused over 1 min via jugular vein
Experimental: After reconstituting the powder with 10 ml of water, the bubbles were formed.
Anesthetized pigs (14-16 kg) were fitted with indwelling catheters in the femoral artery and femoral and jugular veins for hemodynamic monitoring and contrast agent administration. Parasternal short-axis cardiac images at the level of the papillary muscles were obtained using an HP Sonos 2500 Ultrasound machine. Images were acquired in the Second Harmonic mode with a wide bandwidth linear phased array probe emitting at 2 MHz and receiving at 4 MHz. Imaging was intermittent (gated), triggered at end-diastole of every cardiac cycle. 0.5 mnL of reconstituted contrast agent was diluted with 0.5 mL sterile saline and infused over 1 min via the jugular vein.
FIGS. 3, 4, and 5 show a time course of ultrasound images of the heart following intravenous administration of contrast agents. […] FIGS. 4 and 5 show ultrasound images of the same hearts one minute and six minutes after infusion with the respective contrast agents. FIGS. 3a, 4a, and 5a show the ultrasound images of the heart following intravenous administration of contrast agent stabilized by perfluoropolyether. FIGS. 3b, 4b, and 5b show the ultrasound images of the heart following intravenous administration of contrast agent stabilized by perfluorohexane.

[2] = system: rabbit carotid artery; assay: Pulsed Doppler Signal Enhancement Rabbit Model (carotid artery); type: in vivo; settings: Powder D, osmotic agent in mixture with nitrogen, injected dose 0.2 ml (ca. 1 mg dry powder per kg)
Experimental: (§1) One ml of the resulting microbubble suspension was injected intravenously into an approximately 3 kg rabbit instrumented to monitor the Doppler ultrasound signal of its carotid artery. A 10 MHz flow cuff (Triton Technology Inc., San Diego, Calif.; model ES-10-20) connected to a System 6 Doppler flow module (Triton Technology Inc.) fed the RF Doppler signal to a LeCroy 9410 oscilloscope (LeCroy, Chestnut Ridge, N.Y.). The root mean square (RMS) voltage of the signal computed by the oscilloscope was transferred to a computer and the resultant curve fitted to obtain peak echogenic signal intensity and half-life of the microbubbles in blood. Signals before contrast were less than 0.1 volts RMS.
as §1, with “half-ife” for “half-life”
as §1, with “RF doppler” for “RF Doppler”, “obtain Peak” for “obtain peak”
100 mg samples of the spray-dried powder were placed in 10-ml vials and gassed by perfluoroether-air mixture repeated evacuation-gassing cycles with the help of a syringe needle equipped with a three-way valve. As the filling gases, perfluorodimethyl ether (85%, Exfluor Research, Austin, Tex.), perfluoro(methylethyl ether) (80%, Exfluor Research, Austin, Tex.), perfluoro(diethyl ether) (90%, Strem Chemicals, Newburyport, Mass.), n-perfluoropropane and n-perfluorobutane (97%, PCR Incorporated) were used. […] Their echogenic properties in vivo were evaluated using a Pulsed Doppler Signal Enhancement Rabbit Model as described in Example III.
After reconstituting the powder with 10 ml of water, the bubbles were formed. Their echogenic properties in vivo were evaluated using a Pulsed Doppler Signal Enhancement Rabbit Model, as described in Example III, with the difference that the injected dose was reduced to 0.2 ml (ca. 1 mg of dry powder per kg of rabbit). FIGS. 2a, 2b, and 2c compare the decay of ultrasound signal over time for different filling gases at close partial pressures. The data are arranged in pairs so that microbubble preparations comprising perfluoroethers (thick lines) are compared directly with their perfluorocarbon analogues (thin lines). From the graphs it is evident that perfluoroether-filled bubbles have a longer persistence in the bloodstream than their fluorocarbon analogues.

[3] = 25 degrees C.; literature, or if not there calculated with the model of Lawson et al.; cited from earlier work
[4] = 25 degrees C.; first four values, as reported by Wilhelm, Battino and Wilcock; cited from earlier work

Compound | Time of decay of the Doppler signal to baseline, s, at ρF = 0.13 ± 0.03 atm [2] [s] | PF, sat9 atm (saturated vapor pressure) [3] [atm] | further results
FC(F)(F)OC(F)(F)OC(F)(F)OC(F)(F)OC(F)(F)F [CF3—(OCF2)3OCF3] | 1200 | – | contrast of the heart one minute after injection [1]: Substantial contrast of the heart; tissue contrast of the heart at six minutes [1]: still a great deal of tissue contrast
FC(F)(F)OC(F)(F)C(F)(F)OC(F)(F)C(F)(F)F [CF3OC2F4OC2F5] | – | 0.55 | –
FC(F)(F)C(F)(F)F [Sample C2F6, C2F6] | – | 26.2 | –
O=O [Sample O2, oxygen] | – | – | L × 10^6 (Ostwald coefficient) [4]: 31110
FC(F)(F)OC(F)(F)F [CF3OCF3, perfluorodimethylether] | – | 10.9 | –
FC(F)(F)OC(F)(F)C(F)(F)OC(F)(F)C(F)(F)OC(F)(F)F [CF3O(CF2CF2O)2CF3, perfluorodiglyme] | >1800 | 0.20 | –
nitrogen [Sample N2] | – | – | L × 10^6 (Ostwald coefficient) [4]: 15880
FC(F)(F)F [CF4] | – | 159 | L × 10^6 (Ostwald coefficient) [4]: 5172
FC(F)(F)C(F)(F)C(F)(F)C(F)(F)C(F)(F)F [n-C5F12, perfluoropentane] | 400 | 0.84 | –
FC(F)(F)C(F)(F)C(F)(F)F [n-C3F8, n-perfluoropropane] | – | 6.8 | –
FC(F)(F)C(F)(F)C(F)(F)OC(F)(F)C(F)(F)C(F)(F)F [Sample C3F7OC3F7, C3F7OC3F7] | – | 0.30 | –
FC(F)(F)C(F)(F)OC(F)(F)C(F)(F)F [Sample C2F5OC2F5, perfluorodiethylether] | – | 1.9 | –
FC(F)(F)C(F)(F)C(F)(F)C(F)(F)F [n-C4F10, perfluorobutane] | 300 | 2.2 | –
FC(F)(F)OC(F)(F)C(F)(F)OC(F)(F)F [CF3OC2F4OCF3, perfluoromonoglyme] | 400 | 1.16 | –
FS(F)(F)(F)(F)F [SF6] | – | 23.5 | L × 10^6 (Ostwald coefficient) [4]: 5950
FC(F)(F)C(F)(F)C(F)(F)C(F)(F)C(F)(F)C(F)(F)F [n-C6F14, perfluorohexane] | 600 | 0.27 | contrast of the heart one minute after injection [1]: Substantial contrast of the heart; tissue contrast of the heart at six minutes [1]: declined markedly
